Measured values: patent publication US20220056419A1, “IN VITRO MODEL OF LIVER STEATOSIS AND FIBROSING NON-ALCOHOLIC STEATOHEPATITIS” (GENFIT, priority 2018, published 2022)
“Also recorded” adds a separate entry of the source.

What was measured:
[1] = tested on: 3D Huh7 spheroids; experiment: Steatosis model: AdipoRed lipid quantification in 3D Huh7 spheroids induced with first culture medium; assay type: cell-based, human; conditions: 3D liver microtissue steatosis model, 6 days of treatment with test compound
Method: The Huh 7 human hepatocellular carcinoma cell line was seeded in William's E medium (Gibco) with 10% FBS (Gibco) at a density of 3000 cells/well in 384 well plate ULA (Corning). After a few days, spheroids are formed and cells are grown in serum-free culture medium.
William's E medium was supplemented with FFAs (oleate+palmitate, 400 μM total FFA concentration) fructose 15 mM (Sigma) and soluble cholesterol […] (Sigma). Huh7 spheroids were treated for 3 days with this medium with or without a test compound and the treatment was renewed once with or without a test compound.
Steatosis was then measured after 6 days of treatment with or without the test compound.
Lipid Staining and Quantification Intracellular lipid accumulation was quantified using the AdipoRed™ Adipogenesis Assay Reagent (Lonza). Cells were visualized under epifluorescence microscope and then subjected to fluorescence assay quantification at λexc: 485 nm and λem: 572 nm, using plate reader (TECAN).

[2] = tested on: 3D human liver microtissues; experiment: Fibrosing NASH model: COL1A1 (pro-collagen I) ELISA in medium 1+medium 2-treated 3D human liver microtissues; assay type: cell-based; conditions: single agent, medium 1+medium 2-treated 3D liver microtissues, FIG. 9A
From the text: Cryopreserved primary human hepatocytes (IPHH_11) and cryopreserved primary human non parenchymal cells (NPCs containing endothelial and Kupffer cells) (IPHN_11) were obtained from BioIVT. The cryopreserved human primary hepatic stellate cells (hHSC) were obtained from Innoprot. 3D human liver microtissues were produced with the IPHH_11, the IPHN_11 and the hHSC in a 96-well hanging-drop culture platform (Gravity PLUS™, InSphero AG). After microtissues formation, they were transferred into a microtissue-specific 96-well culture and assay platform (Gravity TRAP™, InSphero AG). Further maintenance and compound treatments were performed in Gravity TRAP™ plates. After tissue formation, the 3D microtissues were maintained in William's E medium (Gibco) supplemented with Insulin (Sigma), Transferrin (Sigma), Selenium (Sigma), Glutamine (Gibco), Dexamethasone (Sigma), HEPES (Sigma), Gentamicin (Gibco) and Amphotericin B (Sigma) at 37° C. in a humidified 5% CO2 cell culture incubator for 4 days. Half of the culture medium was replenished every 3 days.
Hepatic microtissues were treated once with a couple of carbohydrates (final concentration ranging from 1 to 100 mM), a couple of free fatty acids either saturated or unsaturated with a final concentration ranging from 100μM to 1 mM and a source of cholesterol with a concentration ranging from 1 μg/mL to 1 mg/mL (medium 1). After 2 to 5 days, microtissues were treated with a couple of carbohydrates (final concentration ranging from 1 to 100 mM), a couple of free fatty acids either saturated or unsaturated with a final concentration ranging from 100 μM to 1 mM and a source of cholesterol with a concentration ranging from 1 μg/mL to 250 μg/mL, a member of the growth factor superfamily member, a member of the TNFSF with a concentration ranging from 1 ng/mL to 1 μg/mL and a sphingolipid with a concentration ranging from 1 nM to 500 nM (medium 2). This treatment lasts from 2 to 5 days.
The level of Collal, IL-8 and MCP-1 was measured using a Sandwich ELISA, according to manufacturer's instructions provided with “Elisa Pro-Collagen I α1/COLIA1”, (DuoSet ELISA, R&D, catalog N°: DY6220-05), Elisa CXCL8/IL-8 (DuoSet ELISA, R&D, catalog N°: DY208n) and Elisa CCL2/MCP-1 (DuoSet ELISA, R&D, catalog N°: DY279) kits, respectively.
For these experiments, a checkerboard matrix was generated. ELA and component (ii) stocks were serially diluted in DMSO in 2-points series in a row (ELA) and a 3-points series in a column (component (ii)) of a 96-well plate. Subsequently, the 2×3 combination matrix was generated by 1:1 mixing of all single agent concentrations.

## O=C(c1c2ccccc2cc2ccccc12)N1CCC(N2CCC[C@@H](C(=O)N3CCOCC3)C2)CC1 [CP-640186]
[1]
  antisteatotic activity (lipid content, AdipoRed signal): antisteatotic activity
[2]; high dose 3 μM
  inhibition of COL1A1 secretion (collagen release): the release of collagen was affected; also recorded: inhibition of COL1A1 secretion

## CSc1ccc(C(=O)/C=C/c2cc(C)c(OC(C)(C)C(=O)O)c(C)c2)cc1 [Elafibranor]
[2]; high dose 3 μM
  inhibition of COL1A1 secretion (collagen release): inhibition of COL1A1 secretion
[2]; high dose 3 μM, listed as ELA
  inhibition of COL1A1 secretion (collagen release): the release of collagen was affected

## COc1ccccc1[C@H](Cn1c(=O)n(C(C)(C)C(=O)O)c(=O)c2c(C)c(-c3ncco3)sc21)OC1CCOCC1 [GS-0976]
[1]
  antisteatotic activity (lipid content, AdipoRed signal): antisteatotic activity
[2]; high dose 1 μM
  inhibition of COL1A1 secretion (collagen release): the release of collagen was affected; also recorded: inhibition of COL1A1 secretion

## COc1cc(C(=O)N2CCC3(CC2)CC(=O)c2cc(-c4cncc(C(=O)O)c4)ccc2O3)cc2c1c(C)cn2C1CC1 [MK-4074]
[1]
  antisteatotic activity (lipid content, AdipoRed signal): antisteatotic activity
